Several values for one entry are separate records, joined by “and”; a condition that tells them apart may be missing. Identical values can stand only once.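 Values below derive from 48-hour exposures of cells grown in 96-well plates, with endpoints linearly interpolated between the two concentrations bracketing the appropriate inhibition level. The concentration for 50% growth inhibition is given as GI50. TGI: total growth inhibition.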
Columns and labels:
Assay in all cases: NCI anticancer screen, dose series, 48 h; in the data active means GI50 below about 0.43 µM; inactive means the rest
[1] = system: CCRF-CEM leukemia
[2] = system: DU-145 prostate
[3] = system: HT29 colon
[4] = system: K-562 leukemia
[5] = system: MCF7 breast
[6] = system: NCI/ADR-RES ovarian
[7] = system: OVCAR-4 ovarian
[8] = system: OVCAR-8 ovarian
[9] = system: RPMI-8226 leukemia
[10] = system: SF-539 CNS
[11] = system: SK-MEL-2 melanoma
[12] = system: SW-620 colon
[13] = system: UACC-257 melanoma
[14] = system: UACC-62 melanoma

COC(=O)C1SC[C@H]2C(=O)N(c3ccccc3)C(=O)N12 (stereo partly drawn)
> 100 µM: TGI [1] | TGI [2] | TGI [3] | TGI [4] | TGI [5] | TGI [6] | TGI [7] | TGI [8] | TGI [9] | TGI [10] | TGI [11] | TGI [12] | TGI [13] | TGI [14]

C#CCOC(=O)[C@@H](C)c1ccc2cc(OC)ccc2c1
> 100 µM: TGI [1] | TGI [2] | TGI [4] | TGI [5] | TGI [6] | TGI [7] | TGI [8] | TGI [9] | TGI [10] | TGI [11] | TGI [12] | TGI [13] | TGI [14]

O=c1oc2ccccc2n1CCCn1c(=O)oc2ccccc21
> 100 µM: TGI [1] | TGI [2] | TGI [3] | TGI [4] | TGI [5] | TGI [6] | TGI [8] | TGI [9] | TGI [10] | TGI [11] | TGI [12] | TGI [13] | TGI [14]

O=C(N[C@@H](Cc1ccccc1)B(O)O)[C@H](Cc1cccc2ccccc12)NC(=O)N1CCOCC1
0.0301 µM and 0.204 µM: TGI [7]
> 100 µM: TGI [6]
0.0125 µM and 0.0101 µM: TGI [12]
0.352 µM: TGI [5]
0.0119 µM and 0.0391 µM: TGI [14]
0.0065 µM and 0.0397 µM: TGI [13]
0.0852 µM: TGI [4]
0.0105 µM and 0.0106 µM: TGI [3]
0.000769 µM: TGI [10]
0.403 µM and 0.527 µM: TGI [2]
0.0022 µM: TGI [1]
0.00414 µM: TGI [9]
0.122 µM: TGI [8]
inactive: GI50 [6] 7.31 µM

Cc1ccc(NC(=S)N=Nc2c(O)[nH]c3ccccc23)cc1
> 100 µM: TGI [1] | TGI [2] | TGI [3] | TGI [4] | TGI [5] | TGI [6] | TGI [7] | TGI [8] | TGI [9] | TGI [10] | TGI [11] | TGI [12] | TGI [13] | TGI [14]

CC(=O)OCCCCn1cnc2c(Cl)nc(Nc3ccccc3)nc21
> 100 µM: TGI [1] | TGI [2] | TGI [3] | TGI [4] | TGI [5] | TGI [6] | TGI [7] | TGI [8] | TGI [9] | TGI [10] | TGI [12] | TGI [13] | TGI [14]

COc1ccc(C(=O)N(Cc2cccnc2)C(=S)N(Cc2cccnc2)C(=O)c2ccc(OC)cc2)cc1
> 100 µM: TGI [1] | TGI [2] | TGI [3] | TGI [4] | TGI [5] | TGI [6] | TGI [7] | TGI [8] | TGI [9] | TGI [10] | TGI [11] | TGI [12] | TGI [13] | TGI [14]

CS(=O)(=O)CCC(N)P(=O)(O)O (stereo not drawn)
> 100 µM: TGI [1] | TGI [2] | TGI [3] | TGI [4] | TGI [5] | TGI [6] | TGI [7] | TGI [8] | TGI [9] | TGI [11] | TGI [12] | TGI [13] | TGI [14]

Source: PubChem BioAssay (NCI)
